Measured values: patent publication US20240398805A1, “QUINAZOLINE DERIVED COMPOUNDS AS EGFR INHIBITORS AND THEIR USES THEREOF” (ACCUTAR BIOTECHNOLOGY INC., priority 2021, published 2024)

What was measured:
Format in all cases: cell-based
[1] = test system: HCC827-SVD cells (human EGFR exon 20 insertion mutant D770_N771 insSVD); assay: Cell growth inhibition (CellTiter-Glo, 3 days) in HCC827-SVD; settings: 72 h, 3 days after administration
Procedure: (§1) 1. Preparation of HCC827-SVD, HCC827-ASV and HCC827-YVMA Cell Lines
HCC827-SVD cell line were generated by first transducing HCC827 cells (ATCC) with lentiviral particles expressing codon-optimized human EGFR exon 20 insertion mutant D770_N771 insSVD, and then selecting under 5 μg/ml purimycin treatment for a week.
The resulting cells were further transduced with lentiviral particles carrying EGFR sgRNA and CAS9 to knockout the endogenous alleles of EGFR, and then selected under 500 μg/ml hygromycin B treatment for two weeks. Single clone was subsequently generated by limiting dilution approach. Endogenous EGFR knockout was confirmed by Sanger sequencing of cell genomic DNA and expression of exogenous mutant EGFR was verified by Western blot analysis.
(§2) 2. Cell Growth Inhibition for HCC827, HCC827-SVD, HCC827-ASV, HCC827-YVMA and A431.
(§3) HCC827(ATCC), HCC827-SVD, HCC827-ASV, HCC827-YVMA were seeded in 96-well plates at 5000 cells/well in 90 μl of RPMI growth medium containing 10% FBS and 1% Penicillin Streptomycin. A431 (ATCC) cells were seed in 96-well plates at 5000 cells/well in 90 μl of DMEM growth medium containing 10% FBS and 1% Penicillin Streptomycin. Cells were incubated at 3700 overnight. The following day, the test compound was administered to the cells by using 1 Ox compound stock solution prepared in growth medium at various concentrations. After administration of the compound, cells were then incubated at 3700 for 3 days. Before CeIlTiter-Glo assay, the plates were equilibrated at room temperature for approximately 10 minutes. 100 ul of CelTiter-Glo® Reagent (Promega) was added to each well. The plates were then incubated at room temperature for 10 minutes and luminescence was recorded by EnSpire plate reader (PerkinElmer).

A431 cells = assay: Cell growth inhibition (CellTiter-Glo, 3 days) in A431; settings: Homo sapiens, A-431, 72 h, 3 days after administration
Procedure: as §2, §3

[2] = test system: HCC827-YVMA cells (human ERBB2 exon20 insertion mutant A775_G776ins YVMA); assay: Cell growth inhibition (CellTiter-Glo, 3 days) in HCC827-YVMA; settings: 72 h, 3 days after administration
Excerpt: as §1
(§4) HCC827-ASV and HCC827-YVMA cell lines were generated in the similar approach as HCC827-SVD except that HCC827 cells (ATCC) were first transduced with lentiviral particles expressing codon-optimized human EGFR exon 20 insertion mutant A769_D770insASV and human ERBB2 exon20 insertion mutant A775_G776ins YVMA, respectively.
as §2, §3

[3] = test system: HCC827-ASV cells (human EGFR exon 20 insertion mutant A769_D770insASV); assay: Cell growth inhibition (CellTiter-Glo, 3 days) in HCC827-ASV; settings: 72 h, 3 days after administration
Excerpt: as §1, §4, §2, §3

HCC827 cells = assay: Cell growth inhibition (CellTiter-Glo, 3 days) in HCC827; settings: Homo sapiens, 72 h, 3 days after administration
Procedure: as §2, §3

| Compound | GI50 [1] [nM] | GI50 (A431 cells) [nM] | GI50 [2] [nM] | GI50 [3] [nM] | GI50 (HCC827 cells) [nM] |
| --- | --- | --- | --- | --- | --- |
| C=CC(=O)N1CCC(Nc2cc3c(Nc4ccc(Oc5ccnc(N6CC(C)(O)C6)c5)cc4F)ncnc3cc2OC)CC1 [Example 203, 1-(4-((4-((2-fluoro-4-((2-(3-hydroxy-3-methylazetidin-1-yl)pyridin-4-yl)oxy)phenyl)amino)-7-methoxyquinazolin-6-yl)amino)piperidin-1-yl)prop-2-en-1-one] | < 30 | 100 to 300 | < 30 | < 30 | 100 to 300 |
| C=CC(=O)N1CCC(Nc2cc3c(Nc4ccc(Oc5ccnc(N6CC[C@H](OC)C6)c5)cc4F)ncnc3cc2OC)CC1 [Example 115, (S)-1-(4-((4-((2-fluoro-4-((2-(3-methoxypyrrolidin-1-yl)pyridin-4-yl)oxy)phenyl)amino)-7-methoxyquinazolin-6-yl)amino)piperidin-1-yl)prop-2-en-1-one] | 60 to 100 | 300 to 600 | 100 to 300 | 100 to 300 | 300 to 600 |
| C=CC(=O)N1CCC(Oc2cc3c(Nc4ccc(Oc5ccnc(N6CCN(C(C)C)CC6)c5)cc4F)ncnc3cc2OC)CC1 [Example 157, 1-(4-((4-((2-fluoro-4-((2-(4-isopropylpiperazin-1-yl)pyridin-4-yl)oxy)phenyl)amino)-7-methoxyquinazolin-6-yl)oxy)piperidin-1-yl)prop-2-en-1-one] | ≥ 1000 | ≥ 1000 | ≥ 1000 | ≥ 1000 | ≥ 1000 |
| C=CC(=O)N1CCC(Nc2cc3c(Nc4ccc(Oc5ccnc(N6CCC(N)CC6)c5)cc4F)ncnc3cc2OC)CC1 [Example 178, 1-(4-((4-((4-((2-(4-aminopiperidin-1-yl)pyridin-4-yl)oxy)-2-fluorophenyl)amino)-7-methoxyquinazolin-6-yl)amino)piperidin-1-yl)prop-2-en-1-one] | 300 to 600 | ≥ 1000 | 300 to 600 | 300 to 600 | ≥ 1000 |
| C=CC(=O)N1CCC(Nc2cc3c(Nc4ccc(Oc5ccnc(N6CCC(C)(C#N)CC6)c5)cc4F)ncnc3cc2OC)CC1 [Example 200, 1-(4-(4-((6-((1-acryloylpiperidin-4-yl)amino)-7-methoxyquinazolin-4-yl)amino)-3-fluorophenoxy)pyridin-2-yl)-4-methylpiperidine-4-carbonitrile] | 30 to 60 | ≥ 1000 | 60 to 100 | 30 to 60 | 60 to 100 |
| C=CC(=O)N1CCC(Nc2cc3c(Nc4ccc(Oc5ccnc(-c6ncc(C)s6)c5)cc4F)ncnc3cc2OC)CC1 [Example 99, 1-(4-((4-((2-fluoro-4-((2-(5-methylthiazol-2-yl)pyridin-4-yl)oxy)phenyl)amino)-7-methoxyquinazolin-6-yl)amino)piperidin-1-yl)prop-2-en-1-one] | 60 to 100 | 600 to 1000 | 30 to 60 | 30 to 60 | 60 to 100 |
| COc1cc2ncnc(Nc3ccc(Oc4ccn(-c5cnc(C)c(F)c5)n4)cc3F)c2cc1NC1CCN(C(=O)/C=C/CN(C)C)CC1 [Compound 21, (2E)-4-(dimethylamino)-1-[4-({4-[(2-fluoro-4-{[1-(5-fluoro-6-methylpyridin-3-yl)pyrazol-3-yl]oxy}phenyl)amino]-7-methoxyquinazolin-6-yl}amino)piperidin-1-yl]but-2-en-1-one] | ≥ 1000 | ≥ 1000 | 300 to 600 | ≥ 1000 | ≥ 1000 |
| C=CC(=O)N1CCC(Nc2cc3c(Nc4ccc(Oc5ccnc(N6C[C@H](OC)[C@@H](OC)C6)c5)cc4F)ncnc3cc2OC)CC1 [Example 256, 1-(4-((4-((4-((2-((3S,4S)-3,4-dimethoxypyrrolidin-1-yl)pyridin-4-yl)oxy)-2-fluorophenyl)amino)-7-methoxyquinazolin-6-yl)amino)piperidin-1-yl)prop-2-en-1-one] | < 30 | 100 to 300 | < 30 | < 30 | 60 to 100 |
| C=CC(=O)N1CCC(Nc2cc3c(Nc4ccc(Oc5ccnc(N6CCO[C@H](CO)C6)c5)cc4F)ncnc3cc2OC)CC1 [Example 125, (S)-1-(4-((4-((2-fluoro-4-((2-(2-(hydroxymethyl)morpholino)pyridin-4-yl)oxy)phenyl)amino)-7-methoxyquinazolin-6-yl)amino)piperidin-1-yl)prop-2-en-1-one] | 300 to 600 | ≥ 1000 | 100 to 300 | 100 to 300 | ≥ 1000 |
| C=CC(=O)N1CCC(Nc2cc3c(Nc4ccc(Oc5ccnc(N[C@@H]6CCOC6)c5)cc4F)ncnc3cc2OC)CC1 [Example 248, (R)-1-(4-((4-((2-fluoro-4-((2-((tetrahydrofuran-3-yl)amino)pyridin-4-yl)oxy)phenyl)amino)-7-methoxyquinazolin-6-yl)amino)piperidin-1-yl)prop-2-en-1-one] | 30 to 60 | 300 to 600 | 30 to 60 | 30 to 60 | 60 to 100 |
| C=CC(=O)N1CCC(Nc2cc3c(Nc4ccc(Oc5ccn(-c6ccc(C)c(F)n6)n5)cc4F)ncnc3cc2OC)CC1 [Example 93, 1-(4-((4-((2-fluoro-4-((1-(6-fluoro-5-methylpyridin-2-yl)-1H-pyrazol-3-yl)oxy)phenyl)amino)-7-methoxyquinazolin-6-yl)amino)piperidin-1-yl)prop-2-en-1-one] | 60 to 100 | ≥ 1000 | 30 to 60 | 30 to 60 | 60 to 100 |
| C=CC(=O)N1CCC(Nc2cc3c(Nc4ccc(Oc5ccnc(N6CCOC[C@H]6C)c5)cc4F)ncnc3cc2OC)CC1 [Example 137, (R)-1-(4-((4-((2-fluoro-4-((2-(3-methylmorpholino)pyridin-4-yl)oxy)phenyl)amino)-7-methoxyquinazolin-6-yl)amino)piperidin-1-yl)prop-2-en-1-one] | 100 to 300 | ≥ 1000 | 300 to 600 | 100 to 300 | ≥ 1000 |
| C=CC(=O)N1CCC(Nc2cc3c(Nc4ccc(Oc5ccnc(N6CCN(C(C)=O)CC6)c5)cc4F)ncnc3cc2OC)CC1 [Example 120, 1-(4-((4-((4-((2-(4-acetylpiperazin-1-yl)pyridin-4-yl)oxy)-2-fluorophenyl)amino)-7-methoxyquinazolin-6-yl)amino)piperidin-1-yl)prop-2-en-1-one] | 100 to 300 | ≥ 1000 | 600 to 1000 | 100 to 300 | ≥ 1000 |
| C=CC(=O)N1CCC(Nc2cc3c(Nc4ccc(Oc5ccnc(C(=O)O)c5)cc4F)ncnc3cc2OC)CC1 [Example 212, 4-(4-((6-((1-acryloylpiperidin-4-yl)amino)-7-methoxyquinazolin-4-yl)amino)-3-fluorophenoxy) picolinic acid] | ≥ 1000 | ≥ 1000 | ≥ 1000 | ≥ 1000 | ≥ 1000 |
| C=CC(=O)N1CCC(Nc2cc3c(Nc4ccc(Oc5ccnc(N[C@H]6CCOC6)c5)cc4F)ncnc3cc2OC)CC1 [Example 247, (S)-1-(4-((4-((2-fluoro-4-((2-((tetrahydrofuran-3-yl)amino)pyridin-4-yl)oxy)phenyl)amino)-7-methoxyquinazolin-6-yl)amino)piperidin-1-yl)prop-2-en-1-one] | 60 to 100 | 600 to 1000 | 30 to 60 | 60 to 100 | 100 to 300 |
| C=CC(=O)N1CCC(Nc2cc3c(Nc4ccc(Oc5ccnc(-c6ccc(C)cc6)c5)cc4F)ncnc3cc2OC)CC1 [Example 235, 1-(4-((4-((2-fluoro-4-((2-(p-tolyl)pyridin-4-yl)oxy)phenyl)amino)-7-methoxyquinazolin-6-yl)amino)piperidin-1-yl)prop-2-en-1-one] | 30 to 60 | 600 to 1000 | 60 to 100 | 30 to 60 | 60 to 100 |
| C=CC(=O)N1CC[C@H](Oc2cc3c(Nc4ccc(Oc5ccn(-c6cnc(OC)nc6)n5)cc4F)ncnc3cc2OC)C1 [Compound 81, (S)-1-(3-((4-((2-fluoro-4-((1-(2-methoxypyrimidin-5-yl)-1H-pyrazol-3-yl)oxy)phenyl)amino)-7-methoxyquinazolin-6-yl)oxy)pyrrolidin-1-yl) prop-2-en-1-one] | 100 to 300 | 300 to 600 |  |  | 300 to 600 |
